From patent publication EP4667464A1 (Cyrus Therapeutics Inc., priority 2023, dated 2024)
Where two headings read alike, the source gives them in different places.

How the values were obtained:
SOS1 = target: T1, SOS1 (Homo sapiens, UniProt Q07889); assay: SOS-catalyzed nucleotide exchange assay (HTRF, SOS1-mediated GTP loading of KRAS G12D); type: biochemical
T1 construct: HIS-SOS1cat (160 nM; Cytoskeleton, US); His (N); purchased Cytoskeleton
T1 sequence (Q07889 564-1049 limits assumed): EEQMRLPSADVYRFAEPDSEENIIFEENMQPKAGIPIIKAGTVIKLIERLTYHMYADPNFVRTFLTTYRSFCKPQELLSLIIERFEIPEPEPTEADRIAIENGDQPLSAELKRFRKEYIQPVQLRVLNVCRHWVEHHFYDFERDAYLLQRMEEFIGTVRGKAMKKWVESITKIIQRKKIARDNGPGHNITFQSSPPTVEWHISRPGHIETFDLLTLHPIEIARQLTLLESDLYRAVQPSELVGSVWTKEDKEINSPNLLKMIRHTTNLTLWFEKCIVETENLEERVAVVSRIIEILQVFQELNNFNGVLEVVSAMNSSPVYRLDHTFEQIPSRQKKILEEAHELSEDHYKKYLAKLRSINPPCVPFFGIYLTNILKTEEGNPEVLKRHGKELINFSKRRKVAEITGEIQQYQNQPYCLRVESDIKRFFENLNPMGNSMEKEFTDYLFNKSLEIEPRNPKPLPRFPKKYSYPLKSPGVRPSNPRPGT

KRAS G12C::SOS1 = target: T2, KRAS G12C::SOS1 (Homo sapiens, UniProt Q07889); assay: KRAS G12C::SOS1 protein-protein interaction (PPI) inhibition assay (HTRF); type: binding
T2 construct: purchased CISBIO 64KRASG12PEH
T2 sequence (Q07889 1-1333): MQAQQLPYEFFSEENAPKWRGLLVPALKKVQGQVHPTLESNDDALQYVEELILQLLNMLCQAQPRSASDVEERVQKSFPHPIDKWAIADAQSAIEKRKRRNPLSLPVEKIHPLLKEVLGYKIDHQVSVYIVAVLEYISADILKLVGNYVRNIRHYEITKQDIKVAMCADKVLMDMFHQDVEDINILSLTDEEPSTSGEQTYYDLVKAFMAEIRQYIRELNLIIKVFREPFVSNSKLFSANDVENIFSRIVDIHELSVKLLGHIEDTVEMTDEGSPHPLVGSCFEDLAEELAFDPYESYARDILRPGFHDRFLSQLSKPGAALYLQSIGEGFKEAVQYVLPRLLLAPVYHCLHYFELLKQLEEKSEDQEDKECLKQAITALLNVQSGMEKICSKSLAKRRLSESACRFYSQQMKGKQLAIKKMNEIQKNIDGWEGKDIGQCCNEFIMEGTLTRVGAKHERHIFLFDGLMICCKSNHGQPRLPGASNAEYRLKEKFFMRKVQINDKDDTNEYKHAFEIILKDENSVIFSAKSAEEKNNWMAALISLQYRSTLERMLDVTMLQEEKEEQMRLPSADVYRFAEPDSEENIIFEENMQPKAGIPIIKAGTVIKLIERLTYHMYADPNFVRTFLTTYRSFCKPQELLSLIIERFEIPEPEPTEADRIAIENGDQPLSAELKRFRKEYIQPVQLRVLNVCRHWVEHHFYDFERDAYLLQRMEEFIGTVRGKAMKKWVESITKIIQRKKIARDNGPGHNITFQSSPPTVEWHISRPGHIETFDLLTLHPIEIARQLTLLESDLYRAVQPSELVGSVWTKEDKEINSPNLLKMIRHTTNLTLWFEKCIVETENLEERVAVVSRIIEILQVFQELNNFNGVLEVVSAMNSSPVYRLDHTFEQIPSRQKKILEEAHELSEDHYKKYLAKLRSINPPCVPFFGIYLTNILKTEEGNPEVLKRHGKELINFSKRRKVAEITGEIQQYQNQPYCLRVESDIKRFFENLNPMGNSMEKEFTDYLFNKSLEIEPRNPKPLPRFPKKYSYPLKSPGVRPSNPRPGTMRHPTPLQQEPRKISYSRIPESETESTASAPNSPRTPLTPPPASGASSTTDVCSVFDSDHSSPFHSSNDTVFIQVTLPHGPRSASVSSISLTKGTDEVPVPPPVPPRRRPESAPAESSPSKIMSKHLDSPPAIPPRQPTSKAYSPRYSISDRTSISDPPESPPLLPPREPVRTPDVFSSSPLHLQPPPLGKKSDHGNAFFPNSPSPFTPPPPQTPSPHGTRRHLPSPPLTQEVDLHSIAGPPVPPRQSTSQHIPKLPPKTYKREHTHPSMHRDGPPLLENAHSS
Method in brief: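 Compounds, at eight 3-fold dilutions from 3 µM, were mixed with GTP-loaded Tag1-KRAS G12C, Tag2-SOS1 and a terbium-cryptate donor plus XL665 acceptor antibody pair. After 2 h at room temperature, time-resolved FRET reported the KRAS–SOS1 interaction.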

[1] = system: lung cancer cell line NCI-H358 having the KRAS G12C variant; assay: Cancer cell growth inhibition, 3D spheroids (CellTiter-Glo 3D); type: cell-based; details: Homo sapiens, NCI-H358, 120 h, read-out: H358 cell viability
Method in brief: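 NCI-H358 (KRAS G12C) spheroids lysed with CellTiter-Glo 3D for 30 min with shaking after 10 min at room temperature. Growth in compound-treated wells expressed relative to untreated wells set to 100%.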

[2] = GST-KRAS G12D, HIS-SOS1cat, compound 128 pM to 10 µM, read-out: SOS-catalyzed nucleotide exchange assay
[3] = 8 concentrations from 3 µM, three replicates, read-out: KRAS G12C::SOS1 PPI
[4] = 3D spheroids, 0.002-10 µM, 5 days

C[C@@H](NC(=O)c1ccc(=O)n(-c2cncc(-c3cnnn3C)c2)n1)c1cccc(C(C)(F)F)c1F [Example 1-11, N-[(1R)-1-[3-(1,1-difluoroethyl)-2-fluoro-phenyl]ethyl]-1-[5-(3-methyltriazol-4-yl)-3-pyridyl]-6-oxo-pyridazine-3-carboxamide]
IC50 (SOS1; [2]): 50 to 150 nM
IC50 (KRAS G12C::SOS1; [3]): 50 to 150 nM
IC50 [1, 4]: < 1000 nM

C[C@@H](NC(=O)c1cc(C2=CCCCC2)c(=O)n(-c2cncc(-c3cnnn3C)c2)n1)c1cccc(C(F)(F)F)c1F [Example 1-64, N-{(R)-1-[2-fluoro-3-(trifluoromethyl)phenyl]ethyl}-5-(1-cyclohexen-1-yl)-1-[5-(1-methyl-1H-1,2,3-triazol-5-yl)-3-pyridyl]-6-oxo-1,6-dihydropyridazine-3-carboxamide]
IC50 (SOS1; [2]): > 150 nM
IC50 (KRAS G12C::SOS1; [3]): > 150 nM
IC50 [1, 4]: 1000 to 3000 nM

Cc1cc(C(=O)N[C@H](C)c2cccc(C(F)(F)CO)c2F)nn(-c2cncc(-c3cnnn3C(C)C)c2)c1=O [Example 1-39, N-{(R)-1-[3-(1,1-difluoro-2-hydroxyethyl)-2-fluorophenyl]ethyl}-1-[5-(1-isopropyl-1H-1,2,3-triazol-5-yl)-3-pyridyl]-5-methyl-6-oxo-1,6-dihydropyridazine-3-carboxamide]
IC50 (SOS1; [2]): < 50 nM
IC50 (KRAS G12C::SOS1; [3]): < 50 nM
IC50 [1, 4]: < 1000 nM

C[C@@H](NC(=O)c1cc(C2CC2)c(=O)n(-c2cncc(-c3cnnn3C)c2)n1)c1cccc(C(F)(F)F)c1F [Example 7-4, N-{(R)-1-[2-fluoro-3-(trifluoromethyl)phenyl]ethyl}-5-cyclopropyl-1-[5-(1-methyl-1H-1,2,3-triazol-5-yl)-3-pyridyl]-6-oxo-1,6-dihydropyridazine-3-carboxamide]
IC50 (SOS1; [2]): < 50 nM
IC50 (KRAS G12C::SOS1; [3]): < 50 nM
IC50 [1, 4]: < 1000 nM

Cc1cc(C(=O)N[C@H](C)c2cc(N)cc(C(F)(F)F)c2F)nn(-c2cncc(-c3cnnn3C)c2)c1=O [Example 2-5, N-[(1R)-1-[5-amino-2-fluoro-3-(trifluoromethyl)phenyl]ethyl]-5-methyl-1-[5-(3-methyltriazol-4-yl)-3-pyridyl]-6-oxo-pyridazine-3-carboxamide]
IC50 (SOS1; [2]): < 50 nM
IC50 (KRAS G12C::SOS1; [3]): < 50 nM
IC50 [1, 4]: < 1000 nM

C[C@@H](NC(=O)c1ccc(=O)n(-c2cncc(-c3cnnn3C3CC3)c2)n1)c1cccc(C(F)(F)F)c1F [Example 1-50, N-[(1R)-1-[2-fluoro-3-(trifluoromethyl)phenyl]ethyl]-1-[5-(1-cyclopropyl-1H-1,2,3-triazol-5-yl)-3-pyridyl]-6-oxo-pyridazine-3-carboxamide]
IC50 (SOS1; [2]): < 50 nM
IC50 (KRAS G12C::SOS1; [3]): < 50 nM
IC50 [1, 4]: < 1000 nM

C[C@@H](NC(=O)c1ccc(=O)n(-c2cncc(-c3cnnn3C)c2)n1)c1cc(N)cc(C(F)(F)F)c1 [Example 1-9, N-[(1R)-1-[3-amino-5-(trifluoromethyl)phenyl]ethyl]-1-[5-(3-methyltriazol-4-yl)-3-pyridyl]-6-oxo-pyridazine-3-carboxamide]
IC50 (SOS1; [2]): < 50 nM
IC50 (KRAS G12C::SOS1; [3]): < 50 nM
IC50 [1, 4]: < 1000 nM

C[C@@H](NC(=O)c1ccc(=O)n(-c2cncc(-c3ccnn3C)c2)n1)c1cccc(C(F)(F)F)c1F [Example 1-17, N-[(1R)-1-[2-fluoro-3-(trifluoromethyl)phenyl]ethyl]-1-[5-(2-methylpyrazol-3-yl)-3-pyridyl]-6-oxo-pyridazine-3-carboxamide]
IC50 (SOS1; [2]): 50 to 150 nM
IC50 (KRAS G12C::SOS1; [3]): > 150 nM
IC50 [1, 4]: < 1000 nM

C[C@@H](NC(=O)c1ccc(=O)n(-c2cnnc(-c3cnnn3C)c2)n1)c1cccc(C(F)(F)F)c1F [Example 4, N-[(1R)-1-[2-fluoro-3-(trifluoromethyl)phenyl]ethyl]-1-[6-(3-methyltriazol-4-yl)pyridazin-4-yl]-6-oxo-pyridazine-3-carboxamide]
IC50 (SOS1): > 150 nM
IC50 (KRAS G12C::SOS1): > 150 nM
IC50 [1]: > 3000 nM

C[C@@H](NC(=O)c1ccc(=O)n(-c2cnc(F)c(-c3cnnn3C)c2)n1)c1cccc(C(F)(F)F)c1F [Example 6]
IC50 (SOS1): 50 to 150 nM
IC50 (KRAS G12C::SOS1): 50 to 150 nM
IC50 [1]: < 1000 nM

Cc1cc(C(=O)N[C@H](C)c2cccc(C(F)F)c2F)nn(-c2cncc(-c3cnnn3C)c2)c1=O [Example 1-15, N-[(1R)-1-[3-(difluoromethyl)-2-fluoro-phenyl]ethyl]-5-methyl-1-[5-(3-methyltriazol-4-yl)-3-pyridyl]-6-oxo-pyridazine-3-carboxamide]
IC50 (SOS1; [2]): < 50 nM
IC50 (KRAS G12C::SOS1; [3]): < 50 nM
IC50 [1, 4]: < 1000 nM

CC(C)n1nncc1-c1cncc(-n2nc(C(=O)N[C@H](C)c3cccc(C(F)(F)CO)c3F)ccc2=O)c1 [Example 1-52, N-[(1R)-1-[3-(1,1-difluoro-2-hydroxy-ethyl)-2-fluoro-phenyl]ethyl]-1-[5-(1-isopropyl-1H-1,2,3-triazol-5-yl)-3-pyridyl]-6-oxo-pyridazine-3-carboxamide]
IC50 (SOS1; [2]): < 50 nM
IC50 (KRAS G12C::SOS1; [3]): 50 to 150 nM
IC50 [1, 4]: < 1000 nM

C[C@@H](NC(=O)c1ccc(=O)n(-c2cnnc(-c3cnnn3C)c2)n1)c1cccc(C(F)(F)CO)c1F [Example 1-37, N-{(1R)-1-[3-(1,1-difluoro-2-hydroxyethyl)-2-fluoro-phenyl]ethyl}-6'-(1-methyl-1H-1,2,3-triazol-5-yl)-6-oxo-6H-[1,4'-bipyridazine]-1,6-dihydro-3-carboxamide]
IC50 (SOS1; [2]): 50 to 150 nM
IC50 (KRAS G12C::SOS1; [3]): 50 to 150 nM
IC50 [1, 4]: > 3000 nM

Cc1ncc(-n2nc(C(=O)N[C@H](C)c3cccc(C(F)(F)F)c3F)ccc2=O)cc1-c1cnnn1C [Example 1-26, N-[(1R)-1-[2-fluoro-3-(trifluoromethyl)phenyl]ethyl]-1-[6-methyl-5-(3-methyltriazol-4-yl)-3-pyridyl]-6-oxo-pyridazine-3-carboxamide]
IC50 (SOS1; [2]): 50 to 150 nM
IC50 (KRAS G12C::SOS1; [3]): 50 to 150 nM
IC50 [1, 4]: < 1000 nM

C[C@@H](NC(=O)c1ccc(=O)n(-c2cncc(-c3cnnn3C)c2)n1)c1cccc(C(F)(F)CO)c1F [Example 1, N-[(1R)-1-[3-(1,1-difluoro-2-hydroxy-ethyl)-2-fluoro-phenyl]ethyl]-1-[5-(3-methyltriazol-4-yl)-3-pyridyl]-6-oxo-pyridazine-3-carboxamide]
IC50 (SOS1): < 50 nM
IC50 (KRAS G12C::SOS1): < 50 nM
IC50 [1]: < 1000 nM

[2H]C([2H])([2H])n1nncc1-c1cncc(-n2nc(C(=O)N[C@H](C)c3cccc(C(F)F)c3F)ccc2=O)c1 [Example 1-6, N-[(1R)-1-[3-(difluoromethyl)-2-fluoro-phenyl]ethyl]-6-oxo-1-[5-[3-(trideuteriomethyl)triazol-4-yl]-3-pyridyl]pyridazine-3-carboxamide]
IC50 (SOS1; [2]): 50 to 150 nM
IC50 (KRAS G12C::SOS1; [3]): < 50 nM
IC50 [1, 4]: > 3000 nM

[2H]C([2H])([2H])n1nncc1-c1cncc(-n2nc(C(=O)N[C@H](C)c3cc(N)cc(C(F)(F)F)c3)ccc2=O)c1 [Example 1-58]
IC50 (SOS1; [2]): < 50 nM
IC50 (KRAS G12C::SOS1; [3]): < 50 nM
IC50 [1, 4]: < 1000 nM
